Key:
[1] = tested on: SFFV; test: Prophylactic SFFV mouse model: virions pre-incubated with ODNs, injected i.p., then i.v. treatments; format: in vivo, mice
Procedure: Next we evaluated the prophylactic effect of ODN M on SFFV replication. For this we established 5 groups of 5 mice each. We pre-incubated SFFV with different ODNs or PBS for 2 hours and then injected the two together intraperitoneally at time 0. Then the mice were treated at 2, 4, and 24 hours post-infection by i.v. route. After 5 days, plasma from the mice was analyzed for viral RNA levels. […] A blood smear of the mice at day 64 post-infection was analyzed by Giemsa staining.
a. SFFV virions pre-treated with ODNs for 2 hours were injected i.p. into mice. Subsequent treatments were at 2, 4 and 24 h post infection. 5 groups of 5 mice each were used: negative control (1), infection with PBS (2), ODN M (3), or ODN A treatment (4) and mock-infection with ODN M treatment (5). Bleeding was performed five days post-infection for analysis of the viral RNA. The relative RNA levels standardized to group 2 of fully infected mice (bars) as well as RT-PCR products of the individual mice (gel analysis) are shown.

[2] = tested on: SFFV; test: Treatment of 5-day-SFFV-infected mice, plasma SFFV RNA by real-time RT-PCR; format: in vivo
Description: SFFV replicates to high titers in mice, whereby the spleen is a virus-shedding reservoir. The virus stock is recovered from spleen homogenates after full-blown disease, at about day 20 post infection (pi). The clarified supernatant contains around 2×10^5 focus forming units (FFU) per mil. Infection was normally performed by intravenous (iv) injection of 4×10^3 SFFV. After 5 days the blood was recovered (100 microliters) for detection of the viral RNA. The equivalent of 0.05 microliters was enough for RNA detection by 40 cycles. One FFU corresponds to about 6×10^4 RNA copies or 3×10^4 virus particles.
A number of experiments were carried out to evaluate the effect of ODNs on the SFFV mouse model. We treated 5-day-SFFV-infected mice (thick arrow) with ODN M (triangle) and measured the plasma RNA levels 4 hours after the in vivo therapy by real-time RT-PCR (FIG. 10a.1). In a second experiment we isolated the plasma of 5-day-SFFV-infected mice and treated it ex vivo with ODN M for 4 hours (FIG. 10a.2). In the third experiment we isolated uninfected plasma, incubated it ex vivo with ODN M for 2 hours followed by the addition of SFFV for 4 more hours (FIG. 10a.3). Finally we incubated ODN M and SFFV together in normal mouse plasma ex vivo for 4 hours (FIG. 10a.4).
To elucidate further the antiviral effect of ODN M in vivo we set up different therapeutic regimens. We infected mice with SFFV and then treated them 5 days later twice at an interval of two hours with either ODN M (1 mg), asPPT, ODN A as control, or PBS. The RNA was extracted 4, 8 and 16 hours later for PCR analysis (FIG. 10b.1). The viral RNA decreased approximately 6-fold in the plasma and started to slowly increase again 16 hours post-therapy.
In the next study, we used a single injection as treatment protocol and assessed the antiviral effect of both ODN M and asPPT in a short time-course. Plasma was taken from mice at 0.5, 1, 2, and 4 hours after the single treatment (FIG. 10b.2). A strong decrease of the number of SFFV RNA copies was detectable 4 hours after treatment. […] We conclude from FIG. 10b.2 that a single injection is sufficient to decrease the number of RNA copies by approximately 6-fold 4 hours after the beginning of the therapy.
In order to test, whether the SFFV titer increases again after ODN M-treatment, and whether it remains sensitive for ODN M, we treated 5-day-SFFV-infected mice at 3 days intervals with a double dose within 2 hours intervals. Plasma was taken before and 4 hours after treatment and assessed for viral RNA levels (FIG. 10b.3). ODN M exerted a strong antiviral effect with a reduction of RNA copies of 6-fold at day 0 compared with the control. At day 3, the effect is even stronger with 8-fold decrease of the SFFV RNA level.
To obtain a more continuous effect of ODN M and asPPT on SFFV replication we treated the SFFV-infected mice every 12 hours (FIG. 10b.4). […] The lack of response is in accordance with our previous in vitro studies on the sequence-specificity of the ODN A.
PCR was performed as indicated. 1. Mice infected with 200 μl containing 4×10^3 FFU SFFV for 5 days were treated i.v. with ODN M (1 mg corresponding to about 20 μM ODN M in the blood of a mouse) or PBS 4 hours post-treatment, plasma (100 μl) was recovered and analyzed by real time RT-PCR for SFFV RNA. 2. Plasma from a 5-day-SFFV-infected mouse was recovered and 100 μl were treated with ODN M (20 μM) for 4 hours at 37° C. ex vivo and then analyzed. 3. Plasma from a mock-infected mouse was treated with ODN M (20 μM) for 2 hours and then treated with 4×10^3 FFU in 20 μl for 4 hours. 4. Plasma from mock-infected mice was incubated with a combination of SFFV (4×10^3 FFU in 20 μl) and ODN M (20 μM) for 4 hours and then analyzed. The RNA levels were determined by real-time RT-PCR in the four experimental scenarios and are shown to the right.
b. Effect of ODN treatment following SFFV-infection in vivo. […]

[3] = tested on: SFFV; test: NIH 3T3 cells infected with ODN-pretreated SFFV; format: cell-based; settings: three days post-infection, real-time RT-PCR
Description: As next step we investigated the antiviral effect of ODNs by testing pre-treated virions for residual infectivity as has been described before for HIV particles. SFFV particles were pretreated with ODN M or its variants and used to infect NIH 3T3 cells. After three days RNA was extracted from infected cells and from the supernatants and SFFV was quantified by real-time RT-PCR and analysis of amplification products (FIG. 9b).
b. NIH 3T3 cells were infected with SFFV pretreated with various ODNs. After three days the cells and supernatants were harvested and analyzed for SFFV RNA levels by quantitative real time RT-PCR (top) and RT-PCR (bottom) using GAPDH for comparison.

[4] = tested on: HIV virions; test: ODN-mediated cleavage of viral RNA in intact HIV virions (real-time PCR, RT-PCR, agarose gel); format: biochemical; settings: 0.5 μM ODN, 6 hours; for amount of undigested viral RNA (real-time PCR, primers covering PPT region): intact HIV virions, RPMI medium
[5] = treated every 12 hours, up to 60 hours
[6] = SFFV pre-incubated 2 hours, i.p., i.v. treatments at 2, 4, 24 hours, day 5

Row | Sequence | viral infectivity in the body after pretreatment of the virus ([1]; pretreatment in a small test tube 1 to 4 hours, then infection of the mouse) | decrease of SFFV RNA levels (plateau) [2, 5] | SFFV RNA in infected cells and supernatant [3] | amount of undigested viral RNA (real-time PCR, primers covering PPT region) [4] | decrease of plasma RNA levels compared to PBS control mice [1, 6] [fold] | blood smear, Giemsa staining ([1]; day 64 post-infection) | reduction of RNA copies compared with the control ([2]; double dose within 2 hours, day 0, 4 hours after treatment) [fold] | decrease of the SFFV RNA level ([2]; double dose within 2 hours, day 3) [fold] | antiviral effect compared with asPPT ([2]; single injection, 2 hours after beginning of therapy) | decrease of number of SFFV RNA copies ([2]; single injection, 4 hours after beginning of therapy) | decrease of viral RNA in the plasma ([2]; treated twice at an interval of two hours, 1 mg, RNA at 4, 8, 16 hours) | reduction in RNA expression level [1, 6] [%] | effect on viral replication ([2]; double dose at 3 days intervals) | effect on decrease of the RNA level [2, 5] | cDNA production in virions (PCR with ODN A- and viral cDNA-specific primers) ([4]; virions containing monodeoxynucleotides) | total viral RNA by agarose gel electrophoresis ([4]; intact virions, compared to control ODNs)
1 | CCCTTCCAGTCCCCCCTTTTCTTTT (chemistry not given here) [asPPT, single-stranded antisense PPT of HIV, lacks the passenger strand and the linker] | completely abrogate viral infectivity | ~5 fold | clearly less efficient | less efficient cleavage of the viral RNA |  |  |  |  |  |  |  |  |  |  |  | 
2 | TCTTTTTGGGGGGTTTGTTTGTTTTTTCTTTCATTCCCCCCTTTTTCT (chemistry not given here) [ODN M, 22-mer antisense and 22-mer second strand connected by T4, targeted to extended PPT of SFFV] |  | about 10 fold | suppressed viral replication |  | 5 | normal blood cell population | 6 | 8 | stronger than that of asPPT | approximately 6 fold | approximately 6 fold |  |  |  |  | 
3 | TTTTCTTTTGGGGGGTTTGGTTGGGTTTTCCCTTCCAGTCCCCCCTTTTCTTTT (phosphorothioate linkages, further chemistry not given here) [ODN A, 25 mer antisense and 25 mer passenger strand connected by T4, phosphorothioated at each end and in linker, targeted to extended PPT of HIV-1] |  |  | clearly less efficient | significant decrease in the amount of amplification product |  |  |  |  |  |  |  | 30 | no effect on viral replication | no significant effect | led to cDNA production starting with ODN A | significant reduction of the viral RNA

Reference: US20160281089A1, “PREVENTION OF VIRAL INFECTIVITY” (priority 2005, published 2016)
